Laboratory results from US6417197B1, “Acylated n-hydroxy methyl thalidomide prodrugs with immunomodulator action” (Gruenenthal GmbH, priority 1996, dated 2002).
Values after ≈ are worked out from the molar mass of the structure shown.

Key:
[1] = Arch. Pharm. 321, 371 (1988); cited from earlier work
[2] = system: release of TNF-α; experiment: LPS-induced release of TNF-α in human mononuclear cells of the peripheral blood (ELISA); format: cell-based; settings: LPS stimulation; for inhibition at 50 µg/mL: read-out: Inhibition of the release of TNF-α at a final concentration of 50 μg/ml; for IC50: Homo sapiens, linear regression line, read-out: IC50 (50% inhibition of the release of TNF-α)
Protocol: The release of TNF-α was investigated in vitro on human mononuclear cells of the peripheral blood (T cells, B cells and monocytes), after stimulation with lipopolysaccharide (LPS). LPS is a constituent of the bacterial cell wall and stimulates monocytes and macrophages.
Mononuclear cells were obtained from the heparin-treated blood of at least three volunteer donors. For this purpose, 20 ml blood in each case were separated by known methods via a Ficoll-Paque gradient, and the cells were harvested and washed three times with a cell culture medium. The cell culture medium which was used consisted of RPMI 1640 medium, supplemented with 2 mM glutamine (Life Technologies, Eggenstein), 10% foetal calf serum (Life Technologies), […] streptomycin (Sigma, Deisenhofen), 50 IU/ml penicillin (Sigma, Deisenhofen) and 100 μM β-mercaptoethanol (Merck, Darmstadt). The mononuclear cells were subsequently taken up in 15 ml cell culture medium and were divided into 1 ml batches in sterile 24-hole incubation plates (Sigma) 1 μl dimethylsulphoxide (DMSO, Merck) was added to the 1 ml batches which were used as the control batch. 1 μl of a solution of a compound according to the invention (in DMSO; final concentration in the test: 0.5; 5; 12.5 and 50 μg/ml) was added to the test batches. The batches were incubated for one hour in a CO2 incubation cabinet (5% CO2, 90% atmospheric humidity). 2.5 μg LPS (from E. coli 0127: B8, Sigma, Deisenhofen) was subsequently added as a stimulant to each batch with the exception of the control batches. Incubation of the cultures was continued for 20 hours. Following the incubation, the concentration of TNF-α in the cell culture supernatant liquors was determined by ELISA tests (Boehringer Mannheim).

[3] = for solubility in water, corresponding thalidomide amount: thalidomide equivalent of the water solubility; for solubility: water, 25 °C
[4] = system: serum IL-2; experiment: SEB-induced increase in serum IL-2 in galactosamine-pretreated balb/c mice; format: in vivo; settings: 30 minutes before SEB; for Max. inhibition of the increase in serum IL-2 at a dose of 400 mg/kg: 400 mg/kg intraperitoneally, IL-2 2 hours after SEB, balb/c mice
[5] = 50 μg/ml, 20 hours, human mononuclear cells

Molecule | solubility in water, corresponding thalidomide amount [3] [mg thalidomide/ml] | solubility [3] [mg/mL] | Max. inhibition of the increase in serum IL-2 at a dose of 400 mg/kg [4] [%] | inhibition at 50 µg/mL [2, 5] [%] | also measured
O=C1CCC(N2C(=O)c3ccccc3C2=O)C(=O)N1 (stereo not shown) [thalidomide] | – | – | – | – | solubility of thalidomide in water [1]: 0.012 mg/mL
[3-(1,3-dihydro-1,3-dioxo-2H-isoindol-2-yl)-2,6-dioxo-piperidin-1-yl]-methoxycarbonylpropionic acid [Compound 9] | – | – | – | – | Inhibition of the release of TNF-α at a final concentration of 50 μg/ml [2, 5]: 35%
Cl.NCC(=O)NCC(=O)OCN1C(=O)CCC(N2C(=O)c3ccccc3C2=O)C1=O (stereo not shown) [Compound 8, 2-(aminomethylcarbonylamino) acetic acid-[3(1,3-dihydro-1,3-dioxo-2H-isoindol-2-yl)-2,6-dioxo-piperidin-1-yl]methyl ester hydrochloride] | > 190 | > 300 | – | – | –
Cl.NCC(=O)OCN1C(=O)CCC(N2C(=O)c3ccccc3C2=O)C1=O (stereo not shown) [Compound 2, 2-aminoacetic acid-[3-(1,3-dihydro-1,3-dioxo-2H-isoindol-2-yl)-2,6-dioxo-piperidin-1-yl]methyl ester hydrochloride] | 33.6 | 497 | 68 | 54 | ED40 (dose giving 40% reduction in serum IL-2 concentrations) ([4]; intraperitoneal, regression line): 230 mg/kg
CC(C)(C)OC(=O)NCC(=O)OCN1C(=O)CCC(N2C(=O)c3ccccc3C2=O)C1=O (stereo not shown) [Compound 1, N-t-butyl oxycarbonyl-2-aminoacetic acid-[3-(1,3-dihydro-1,3-dioxo-2H-isoindol-2-yl)-2,6-dioxopiperidin-1-yl]methyl ester] | – | – | 34 | 78 | IC50 [2]: 2.7 µg/mL (≈ 6.06 µM)
CNC(C)C(=O)OCN1C(=O)CCC(N2C(=O)c3ccccc3C2=O)C1=O.Cl (stereo not shown) [Compound 4, 2-m ethylaminopropionic acid-[3-(1,3-dihydro-1,3-dioxo-2H-isoindol-2-yl)-2,6-dioxopiperidin-1-yl]methyl ester hydrochloride] | > 190 | > 300 | 26 | – | melting point: 147 to 151 °C
CC(C)C(N)C(=O)OCN1C(=O)CCC(N2C(=O)c3ccccc3C2=O)C1=O.Cl (stereo not shown) [Compound 6, 2-amino-3-methylbutyric acid-[3-(1,3-dihydro-1,3-dioxo-2H-isoindol-2-yl)-2,6-dioxopiperidin-1-yl]methyl ester hydrochloride] | > 190 | > 300 | 52 | 97 | melting point: 145 to 150 °C; IC50 [2]: 2 µg/mL
